Legend:
anti-tumor and anti-HIV = test: biological action of nitroso compounds (anti-tumor and anti-HIV, summary); type: cell-based; details: effective even after exposure of cells as short as 30 minutes
855-2 cells = test: [3H] thymidine uptake / growth, 855-2 cells (FIG. 2A, E, F; FIG. 3); type: cell-based, human
Protocol: FIGS. 2A-2F are a composite of graphs displaying the inhibitory effects of the ADRPT ligands on (FIG. 2A) 855-2 cells (a cell line of human B-cell lineage acute lymphoblastic leukemia), (FIG. 2B) H9 cells (a cell line of human T-cell lineage acute lymphoblastic leukemia), FIG. (2C) HL-60 cells (a cell line of human acute nonlymphoblastic leukemia) and (FIG. 2D) K562 cells (a cell line of human chronic myelogenous leukemia). These cells were cultured while under the influence of the growth factors in 10% fetal bovine serum (FCS), whereas in (FIG. 2E) and (FIG. 2F) the 855-2 cells were cultured in the presence of autocrine growth factor activity (AGF) or low molecular weight-B-cell growth factor (BCGF, a T-cell derived lymphokine), respectively.
Experiments using HL-60 cells (FIG. 2C) provided similar conclusions.
855-2 cells that were grown in media with (1) 10% fetal bovine serum, (2) autocrine growth factor (AGF) and (3) low molecular weight-BCGF (a T cell derived lymphokine) were exposed to increasing concentrations of the ADRPT ligands.

L1210 murine leukemia = L1210 murine leukemia in vivo; design: species or system BDF mice; details: 2 mg/kg i.p. twice a day, 6 consecutive days
HIV-1 (LAV strain) = test: HIV-1 inactivation assay in PBL cultures (FIG. 13A, B); type: cell-based; details: NOBA versus NOBP
Protocol: The assay was performed as described in FIG. 13A except that the 30 min. preincubation of virus with NOBA was carried out at 0>, 22° or 37° C.
An HIV-1 stock having an infectivity titer of 100,000 TCID50 was incubated for 30 min. at 22° C. with either of the drugs. Control HIV samples, containing no drugs, were incubated in the same manner. […] At the end of this incubation cultures were assayed for productive infection by an immunoassay for HIV-1 antigens and by reverse transcriptase as described in McDougal, et al., J. Immunol Methods 76:171-183 (1985). Virus titers were expressed as percentile values (percent infected cultures) compared to the controls, containing HIV dilutions which were not preincubated with the C-nitroso drugs. In a separate series of experiments, HIV-1 dilutions and C-nitroso drugs (see upper abscissa) were not preincubated but were added simultaneously to lymphocytes in exactly the same concentrations as described previously (i.e., following preincubation) and viral growth monitored 9 days later. […] Chem. Soc. 111:395-396 (1989), South, et al., Biochem Pharm. 40:123-129 (1990), Summers, et al., Biochemistry 29:329-340 (1990), the inhibition of HIV-1 propagation was profound when C-nitroso drugs were preincubated with HIV-1, whereas only negligible effect on HIV-1 growth occurred when both drugs and virus were added simultaneously. […]

NC(=O)c1cccc(N=O)c1 [NOBA, 3-nitrosobenzamide]
anti-tumor and anti-HIV activity (anti-tumor and anti-HIV): highly active | growth arrest in increasing FCS (855-2 cells; 10 μM, increasing FCS concentrations): Growth arrest occurs irrespective of the concentration of FCS | inhibitory effects with different growth factors (855-2 cells; 10% fetal bovine serum, AGF or BCGF): potent inhibitory effects | in vivo chemotherapeutic response (L1210 murine leukemia): highly significant in vivo chemotherapeutic response | toxic effects in mice (L1210 murine leukemia): no toxic effects | relative depression of HIV-1 propagation (HIV-1 (LAV strain)): greater depression of HIV-1 propagation

Reference: US5482975A, “Adenosine diphosphoribose polymerase binding nitroso aromatic compounds useful as retroviral inactivating agents, anti-retroviral agents and anti-tumor agents” (priority 1993, dated 1996)
